According to patent US20250130239A1, “PROTEIN DEGRADER” (University of Dundee, priority 2021, published 2025):

Experiments:
22RV1 cells = assay: CellTiter-Glo cell viability assay, 22RV1; assay type: cell-based, human; conditions: up to 10 μM; 48 h
Experimental: Cell Viability Assay. MV-4-11 cells were plated at a density of 2×10^4 cell per well of a 96 well white-bottom plate, and left to grow overnight in 50 μl of IMDM (Invitrogen, arlsebad, CA, USA) supplemented with 10% (v/v) Fetal bovine serum (FBS) (Thermo Fisher, Waltham, MA, USA) and 1% (v/v) penicillin/streptomycin (pen/strep) (#15140122, Thermo Fisher, Waltham, MA, USA) at 37° C., 5% CO2, and 95% humidity. […] These cells were then left to incubate at 37° C., 5% CO2, and 95% humidity for one day prior to undergoing spectrophotometric analysis. 22RV1 cells were plated at a density of 2×10^4 cell per well of a 96 well white-bottom plate, and left to grow overnight in 100 μL of RPMI-1640 (Invitrogen, Carlsebad, CA, USA) supplemented with 10% (v/v) fetal bovine serum (FBS) (Thermo Fisher, Waltham, MA, USA) and 1% (v/v) penicillin/streptomycin (pen/strep) (#15140122, Thermo Fisher, Waltham, MA, USA) at 37° C., 5% CO2, and 95% humidity. […] Plates were subjected to 2 mins on an orbital shaker to encourage lysis and left for a further 5 mins to reach peak luminescence. Luminescence was then recorded on a BMG Labtech PHERAstar luminescence plate reader with recommended settings. Data extracted from this analysis was analysed with Graphpad Prism (v. 8.2.0, GraphPad) and normalized to the DMSO vehicle control. […]

[1] = In vivo PK profiling of AGB1; set-up: species or system C57BL/6 male mice; conditions: SC (5 mg/kg), mice
Experimental: In Vivo PK Profiling. Pharmacokinetic profiling was outsourced and undertaken by Shanghai ChemPartner Co., Ltd. Six to eight-week-old, C57BL/6 male mice purchased from Jihui Laboratory Animal Co. LTD were used in the study. […] The animals were restrained manually at the designated time points (0.083, 0.25, 0.5, 1, 2, 4 and 8 h), approximately 110 μL of blood sample was collected via facial vein into K2EDTA tubes. Three mice per time point were used resulting in a total of […]. Blood sample was put on ice and centrifuged at 2000 g for 5 mins to obtain plasma sample within 15 min. Plasma samples were stored at approximately −70° C. until analysis. A 30 μL aliquot of plasma was added with 200 μL internal standard (Diclofenac, 40 ng/mL) in 1% formic acid in MeCN. The mixture was then vortexed for 1 min and then centrifuged for 10 min at 5800 rpm. 100 μL of supernatant was transferred to a new plate. 0.5 μL of solvent was injected to LC-MS/MS. LC-MS/MS instrument used: SCIEX LC-MS/MS-45 (Triple Quad 6500+). Data was analysed by WinNonLin and Microsoft Excel.

BromoTag-Brd2 = target: T1, BromoTag-Brd2 (Homo sapiens, UniProt O60885+P40337, L387A); assay: Competition assay (inhibitor pre-treatment, then AGB1); assay type: cell-based; conditions: then 200 nM 46 for 3 h
T1 construct: comprising residues 368-440 of human Brd4; Brd2 (endogenous protein, fusion partner in the same polypeptide); eGFP-P2A (upstream marker in the knock-in cassette) (N, cleaved yes); expressed in transfected cells; host or cells: HEK293, heterozygous CRISPR knock-in at the endogenous BRD2 locus
T1 sequence (P40337 whole entry, other chains not shown, the tested form may be a part): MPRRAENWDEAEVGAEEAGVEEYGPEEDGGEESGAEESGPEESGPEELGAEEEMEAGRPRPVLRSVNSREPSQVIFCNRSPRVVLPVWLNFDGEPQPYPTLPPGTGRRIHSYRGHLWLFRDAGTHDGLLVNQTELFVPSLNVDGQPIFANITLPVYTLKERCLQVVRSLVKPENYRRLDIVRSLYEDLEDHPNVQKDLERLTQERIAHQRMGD
Experimental: Competition Assay. Heterozygous BromoTag-Brd2 HEK293 cells were plated in six-well plates at a density of 5×10^5 cells per well in 2 mL DMEM media. […] After 1 h, 200 nM of AGB1 was added to the previously compound treated cells. After a following 3 h the cells were harvested for subsequent processing via western blot. Each treatment was performed in tandem to produce two technical repeats per condition. The 6 well plates were incubated for 4 h at 37° C. and 5% CO2 throughout the experiment.
Western Blotting. All cells were harvested on ice with RIPA lysis, and extraction buffer (ThermoFisher Scientific, 89901) supplemented with protease inhibitor cocktail (Merck, 11697498001) and Benzonase® Nuclease (Sigma, E1014) before being store at −20° C. prior to use. Total protein quantity was determined using the BCA protein assay (#23225, Pierce, Rockford, Illinois). Protein concentration was determined using the BCA assay (ThermoFisher Scientific, 23225). Samples were then prepared and loaded onto NuPAGE™ 4-12% Bis-Tris Midi gels (ThermoFisher Scientific, WG1403A), followed by the transfer of the proteins onto nitrocellulose membranes (EMD Millipore). The membranes were blocked for 1 h prior to incubation with the primary antibodies using 5% Milk TBST. Membranes were probed for Brd2 (Abcam, Ab139690, 1:1000), Brd3 (Abcam, Ab50818, 1:4000), Brd4 (Abcam, Ab128874, 1:1000) or our polyclonal Brd4^BD2 L387A antibody. Following overnight incubation with the primary antibodies at 4° C., the membranes were incubated with secondary antibodies (Anti-rabbit, Abcam AB216773, 1:5000 or anti-mouse, Abcam AB216774, 1:5000) and hFAB™ Rhodamine Anti-Tubulin Antibody (Biorad, 12004165, 1:10000) for one h and then imaged with a Bio-Rad imager (LI-COR Biosciences). All western blots were analysed for band intensities using Image Lab from Bio-Rad (LI-COR, Biosciences). The data extracted from these blots were then plotted and analysed using Prism (v. 8.2.0, GraphPad).

Structure (SMILES): CC[C@@H](C(=O)OCCOCCOCCOCC(=O)N[C@H](C(=O)N1C[C@H](O)C[C@H]1C(=O)NCc1ccc(-c2scnc2C)cc1)C(C)(C)C)[C@@H]1N=C(c2ccc(Cl)cc2)c2c(sc(C)c2C)-n2c(C)nnc21 (single isomer, unassigned) [AGB1 (46)]
- cytotoxicity (22RV1 cells): lack of cytotoxicity
- F (%) [1]: 140%
- on-target degradation activity after pre-treatment with MLN4924 (BromoTag-Brd2; 3 μM MLN4924 1 h): completely abrogated
- on-target degradation activity after pre-treatment with ET-JQ1-OMe (BromoTag-Brd2; 10 μM ET-JQ1-OMe 1 h): A similar outcome
- on-target degradation activity after pre-treatment with VH298 (BromoTag-Brd2; 10 μM VH298 1 h): completely abrogated
- on-target degradation activity after pre-treatment with MG132 (BromoTag-Brd2; 50 μM MG132 1 h): blocked
